Source: US20190134005A1 (BioMarin Pharmaceutical Inc., priority 2016, published 2019)

Biological target: T1, human CGT (Homo sapiens, UniProt Q16880)
T1 sequence (Q16880 21-541): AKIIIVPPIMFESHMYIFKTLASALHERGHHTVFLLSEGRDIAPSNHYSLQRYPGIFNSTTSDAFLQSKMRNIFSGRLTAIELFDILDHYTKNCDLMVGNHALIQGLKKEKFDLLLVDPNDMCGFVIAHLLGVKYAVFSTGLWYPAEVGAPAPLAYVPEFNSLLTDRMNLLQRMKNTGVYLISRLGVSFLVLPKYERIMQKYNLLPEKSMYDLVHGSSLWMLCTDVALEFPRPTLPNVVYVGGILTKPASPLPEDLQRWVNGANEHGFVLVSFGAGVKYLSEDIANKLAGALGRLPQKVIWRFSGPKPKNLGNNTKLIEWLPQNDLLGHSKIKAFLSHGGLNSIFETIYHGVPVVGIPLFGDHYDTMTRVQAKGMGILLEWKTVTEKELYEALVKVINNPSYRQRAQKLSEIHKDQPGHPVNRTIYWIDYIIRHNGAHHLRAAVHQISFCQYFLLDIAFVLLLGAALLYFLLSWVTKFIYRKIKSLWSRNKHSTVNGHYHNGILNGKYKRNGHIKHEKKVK
Assay: Assay 1: CGT Enzymatic Assay (RapidFire/MS/MS, 0.01% Tween 80)
Assay type: biochemical
Conditions: Table 1, Compounds of Formula (I) and Formula (II); CGT enzymatic assay; read-out: IC50

| SMILES | IC50 |
| --- | --- |
| CCC1N(c2ccc(Cl)cc2)C(=O)N(c2ccc(Cl)cc2)C1(O)c1cccc(OC(F)(F)F)c1 (centres unmarked) [Compound 82, 1,3-bis(4-chlorophenyl)-5-ethyl-4-hydroxy-4-(3-(trifluoromethoxy)phenyl)imidazolidin-2-one] | < 1000 nM |
| CCC1N(c2ccc(Br)cc2)C(=O)N(c2ccc(Br)cc2)C1(O)c1cccc(OC(F)(F)F)c1 (centres unmarked) [Compound 83, 1,3-bis(4-bromophenyl)-5-ethyl-4-hydroxy-4-(3-(trifluoromethoxy)phenyl)imidazolidin-2-one] | < 1000 nM |
| O=C1N(c2ccc(Cl)cc2)CC(O)(c2cc(Cl)cc(Cl)c2)N1c1ccc(Cl)cc1 (centres unmarked) [Compound 85, 1,3-bis(4-chlorophenyl)-4-(3,5-dichlorophenyl)-4-hydroxyimidazolidin-2-one] | 1000 to 10000 nM |
| O=C1N(c2ccc(Br)cc2)[C@@H](c2ccccc2)C(O)(c2ccccc2)N1c1ccc(Br)cc1 (stereo partly drawn) [Compound 86-1, (5S)-1,3-bis(4-bromophenyl)-4-hydroxy-4,5-diphenylimidazolidin-2-one] | 10000 to 50000 nM |
| O=C1N(c2ccc(Br)cc2)[C@H](c2ccccc2)C(O)(c2ccccc2)N1c1ccc(Br)cc1 (stereo partly drawn) [Compound 86-2, (5R)-1,3-bis(4-bromophenyl)-4-hydroxy-4,5-diphenylimidazolidin-2-one] | 1000 to 10000 nM |
| CCCC1N(c2ccc(Cl)cc2)C(=O)N(c2ccc(Cl)cc2)C1(O)c1cccc(C(F)(F)F)c1 (centres unmarked) [Compound 87, 1,3-bis(4-chlorophenyl)-4-hydroxy-5-propyl-4-(3-(trifluoromethyl)phenyl)imidazolidin-2-one] | < 1000 nM |
| CCC[C@H]1N(c2ccc(Cl)cc2)C(=O)N(c2ccc(Cl)cc2)C1(O)c1cccc(C(F)(F)F)c1 (stereo partly drawn) [Compound 87-2, (5R)-1,3-bis(4-chlorophenyl)-4-hydroxy-5-propyl-4-(3-(trifluoromethyl)phenyl)imidazolidin-2-one] | < 1000 nM |
| CCCC1N(c2ccc(Br)cc2)C(=O)N(c2ccc(Br)cc2)C1(O)c1cccc(CC)c1 (centres unmarked) [Compound 88, 1,3-bis(4-bromophenyl)-4-(3-ethylphenyl)-4-hydroxy-5-propylimidazolidin-2-one] | < 1000 nM |
| CCC[C@@H]1N(c2ccc(Br)cc2)C(=O)N(c2ccc(Br)cc2)C1(O)c1cccc(CC)c1 (stereo partly drawn) [Compound 88-1, (5S)-1,3-bis(4-bromophenyl)-4-(3-ethylphenyl)-4-hydroxy-5-propylimidazolidin-2-one] | < 1000 nM |
| CCC[C@H]1N(c2ccc(Br)cc2)C(=O)N(c2ccc(Br)cc2)C1(O)c1cccc(CC)c1 (stereo partly drawn) [Compound 88-2, (5R)-1,3-bis(4-bromophenyl)-4-(3-ethylphenyl)-4-hydroxy-5-propylimidazolidin-2-one] | < 1000 nM |
| CCCC1N(c2ccc(Cl)cc2)C(=O)N(c2ccc(Cl)cc2)C1(O)c1cccc(CC)c1 (centres unmarked) [Compound 89, 1,3-bis(4-chlorophenyl)-4-(3-ethylphenyl)-4-hydroxy-5-propylimidazolidin-2-one] | < 1000 nM |
| CCC[C@@H]1N(c2ccc(Cl)cc2)C(=O)N(c2ccc(Cl)cc2)C1(O)c1cccc(CC)c1 (stereo partly drawn) [Compound 89-1, (5S)-1,3-bis(4-chlorophenyl)-4-(3-ethylphenyl)-4-hydroxy-5-propylimidazolidin-2-one] | < 1000 nM |
| CCC[C@H]1N(c2ccc(Cl)cc2)C(=O)N(c2ccc(Cl)cc2)C1(O)c1cccc(CC)c1 (stereo partly drawn) [Compound 89-2, (5R)-1,3-bis(4-chlorophenyl)-4-(3-ethylphenyl)-4-hydroxy-5-propylimidazolidin-2-one] | < 1000 nM |
| CCCC1N(c2ccc(Cl)cc2)C(=O)N(c2ccc(Cl)cc2)C1(O)c1cccc(C)c1 (centres unmarked) [Compound 90, 1,3-bis(4-chlorophenyl)-4-hydroxy-5-propyl-4-(m-tolyl)imidazolidin-2-one] | < 1000 nM |
| CCC[C@@H]1N(c2ccc(Cl)cc2)C(=O)N(c2ccc(Cl)cc2)C1(O)c1cccc(C)c1 (stereo partly drawn) [Compound 90-1, (5S)-1,3-bis(4-chlorophenyl)-4-hydroxy-5-propyl-4-(m-tolyl)imidazolidin-2-one] | < 1000 nM |
| CCC[C@H]1N(c2ccc(Cl)cc2)C(=O)N(c2ccc(Cl)cc2)C1(O)c1cccc(C)c1 (stereo partly drawn) [Compound 90-2, (5R)-1,3-bis(4-chlorophenyl)-4-hydroxy-5-propyl-4-(m-tolyl)imidazolidin-2-one] | < 1000 nM |
| CCC[C@@H]1N(c2ccc(Cl)cc2)C(=O)N(c2ccc(Cl)cc2)C1(O)c1cccc(OC(F)(F)F)c1 (stereo partly drawn) [Compound 91-1, (5S)-1,3-bis(4-chlorophenyl)-4-hydroxy-5-propyl-4-(3-(trifluoromethoxy)phenyl)imidazolidin-2-one] | < 1000 nM |
| CCC[C@H]1N(c2ccc(Cl)cc2)C(=O)N(c2ccc(Cl)cc2)C1(O)c1cccc(OC(F)(F)F)c1 (stereo partly drawn) [Compound 91-2, (5R)-1,3-bis(4-chlorophenyl)-4-hydroxy-5-propyl-4-(3-(trifluoromethoxy)phenyl)imidazolidin-2-one] | < 1000 nM |

| SMILES | IC50 |
| --- | --- |
| COC[C@@H]1N(c2ccc(Cl)cc2)C(=O)N(c2ccc(Cl)cc2)C1(O)c1cccc(C(F)(F)F)c1 (stereo partly drawn) [Compound 92-1, (5S)-1,3-bis(4-chlorophenyl)-4-hydroxy-5-(methoxymethyl)-4-(3-(trifluoromethyl)phenyl)imidazolidin-2-one] | < 1000 nM |
| COC[C@H]1N(c2ccc(Cl)cc2)C(=O)N(c2ccc(Cl)cc2)C1(O)c1cccc(C(F)(F)F)c1 (stereo partly drawn) [Compound 92-2, (5R)-1,3-bis(4-chlorophenyl)-4-hydroxy-5-(methoxymethyl)-4-(3-(trifluoromethyl)phenyl)imidazolidin-2-one] | < 1000 nM |
| C#Cc1cccc(C2(O)C(C)N(c3ccc(Cl)cc3)C(=O)N2c2ccc(Cl)cc2)c1 (centres unmarked) [Compound 93, 1,3-bis(4-chlorophenyl)-4-(3-ethynylphenyl)-4-hydroxy-5-methylimidazolidin-2-one] | < 1000 nM |
| C#Cc1cccc(C2(O)[C@H](C)N(c3ccc(Cl)cc3)C(=O)N2c2ccc(Cl)cc2)c1 (stereo partly drawn) [Compound 93-1, (5S)-1,3-bis(4-chlorophenyl)-4-(3-ethynylphenyl)-4-hydroxy-5-methylimidazolidin-2-one] | < 1000 nM |
| C#Cc1cccc(C2(O)[C@@H](C)N(c3ccc(Cl)cc3)C(=O)N2c2ccc(Cl)cc2)c1 (stereo partly drawn) [Compound 93-2, (5R)-1,3-bis(4-chlorophenyl)-4-(3-ethynylphenyl)-4-hydroxy-5-methylimidazolidin-2-one] | < 1000 nM |
| CC1N(c2ccc(Cl)cc2)C(=O)N(c2ccc(Cl)cc2)C1(O)c1cccc(Br)c1 (centres unmarked) [Compound 94, 4-(3-bromophenyl)-1,3-bis(4-chlorophenyl)-4-hydroxy-5-methylimidazolidin-2-one] | < 1000 nM |
| C[C@@H]1N(c2ccc(Cl)cc2)C(=O)N(c2ccc(Cl)cc2)C1(O)c1cccc(Br)c1 (stereo partly drawn) [Compound 94-1, (5S)-4-(3-bromophenyl)-1,3-bis(4-chlorophenyl)-4-hydroxy-5-methylimidazolidin-2-one] | < 1000 nM |
| C[C@H]1N(c2ccc(Cl)cc2)C(=O)N(c2ccc(Cl)cc2)C1(O)c1cccc(Br)c1 (stereo partly drawn) [Compound 94-2, (5R)-4-(3-bromophenyl)-1,3-bis(4-chlorophenyl)-4-hydroxy-5-methylimidazolidin-2-one] | < 1000 nM |
| N#Cc1cc(Cl)cc(C2(O)CN(c3ccc(Cl)cc3)C(=O)N2c2ccc(Cl)cc2)c1 (centres unmarked) [Compound 95, 3-(1,3-bis(4-chlorophenyl)-4-hydroxy-2-oxoimidazolidin-4-yl)-5-chlorobenzonitrile] | 1000 to 10000 nM |
| CCCC1N(c2ccc(Br)cc2)C(=O)N(c2ccc(Br)cc2)C1(O)c1cccc(C)c1 (centres unmarked) [Compound 96, 1,3-bis(4-bromophenyl)-4-hydroxy-5-propyl-4-(m-tolyl)imidazolidin-2-one] | < 1000 nM |
| CCC[C@@H]1N(c2ccc(Br)cc2)C(=O)N(c2ccc(Br)cc2)C1(O)c1cccc(C)c1 (stereo partly drawn) [Compound 96-1, (5S)-1,3-bis(4-bromophenyl)-4-hydroxy-5-propyl-4-(m-tolyl)imidazolidin-2-one] | < 1000 nM |
| CCC[C@H]1N(c2ccc(Br)cc2)C(=O)N(c2ccc(Br)cc2)C1(O)c1cccc(C)c1 (stereo partly drawn) [Compound 96-2, (5R)-1,3-bis(4-bromophenyl)-4-hydroxy-5-propyl-4-(m-tolyl)imidazolidin-2-one] | < 1000 nM |
| Cc1csc(C2(O)C(C)N(c3ccc(Br)cc3)C(=O)N2c2ccc(Br)cc2)c1 (centres unmarked) [Compound 97, 1,3-bis(4-bromophenyl)-4-hydroxy-5-methyl-4-(4-methylthiophen-2-yl)imidazolidin-2-one] | 1000 to 10000 nM |
| Cc1csc(C2(O)[C@H](C)N(c3ccc(Br)cc3)C(=O)N2c2ccc(Br)cc2)c1 (stereo partly drawn) [Compound 97-1, (5S)-1,3-bis(4-bromophenyl)-4-hydroxy-5-methyl-4-(4-methylthiophen-2-yl)imidazolidin-2-one] | 1000 to 10000 nM |
| Cc1csc(C2(O)[C@@H](C)N(c3ccc(Br)cc3)C(=O)N2c2ccc(Br)cc2)c1 (stereo partly drawn) [Compound 97-2, (5R)-1,3-bis(4-bromophenyl)-4-hydroxy-5-methyl-4-(4-methylthiophen-2-yl)imidazolidin-2-one] | 1000 to 10000 nM |
| O=C1N(c2ccc(Cl)cc2)CC(O)(c2cc(Cl)cc(Br)c2)N1c1ccc(Cl)cc1 (centres unmarked) [Compound 98, 4-(3-bromo-5-chlorophenyl)-1,3-bis(4-chlorophenyl)-4-hydroxyimidazolidin-2-one] | 1000 to 10000 nM |
| CC1N(c2ccc(Cl)cc2)C(=O)N(c2ccc(Cl)cc2)C1(O)c1cccc(C#N)c1 (centres unmarked) [Compound 99, 3-(1,3-bis(4-chlorophenyl)-4-hydroxy-5-methyl-2-oxoimidazolidin-4-yl)benzonitrile] | < 1000 nM |
